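48-hour exposure; five concentrations; linearly interpolated endpoints. GI50 is the concentration that inhibits growth by half.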 The source made the active and inactive calls. Rule as the data show it: active = GI50 up to about 1.1 µM and inactive = higher.
Key:
Test in all cases: DTP human tumour cell line panel, 48 h
[1] = system: HT-29
[2] = system: SK-MEL-5
[3] = system: MDA-MB-231
[4] = system: SF-295
[5] = system: TK-10
[6] = system: SW-620
[7] = system: UACC-62
[8] = system: UACC-257
[9] = system: MDA-MB-435
[10] = system: Hs-578T
[11] = system: CCRF-CEM
[12] = system: OVCAR-4
[13] = system: KM12
[14] = system: OVCAR-8
[15] = system: 786-0
[16] = system: NCI-H226
[17] = system: DU-145
[18] = system: NCI-H23
[19] = system: OVCAR-3
[20] = system: MDA-N

Measured: GI50

N#CCN1CCCCCc2ccccc21
inactive: [1] > 100 µM | [2] > 100 µM | [3] > 100 µM | [4] 53.5 µM | [5] > 100 µM | [6] > 100 µM | [7] > 100 µM | [8] > 100 µM | [9] > 100 µM | [10] > 100 µM | [11] > 100 µM | [12] > 100 µM | [13] > 100 µM | [14] > 100 µM | [15] > 100 µM | [16] > 100 µM | [17] > 100 µM | [18] > 100 µM

CCCCCCc1cc2cc(-c3cn4c(n3)sc3ccccc34)c(=O)oc2cc1O
inactive: [1] 15.4 µM | [2] > 100 µM | [3] > 100 µM | [4] > 100 µM | [5] > 100 µM | [6] > 78.7 µM | [7] 2.36 µM | [8] 4.42 µM | [9] 3.46 µM | [10] > 25.1 µM | [11] > 100 µM | [12] 3.98 µM | [13] > 26.9 µM | [14] 5.82 µM | [15] > 31.6 µM | [16] > 100 µM | [19] > 100 µM | [17] > 100 µM | [18] > 100 µM

O=C(Nc1ccc(Cl)cc1C(F)(F)F)C(=O)Nn1c(S)nc2ccccc2c1=O
inactive: [1] > 100 µM | [2] > 100 µM | [3] > 100 µM | [4] > 100 µM | [5] > 100 µM | [6] > 100 µM | [20] > 100 µM | [7] > 100 µM | [8] > 100 µM | [9] > 100 µM | [10] > 100 µM | [11] 59.8 µM | [12] 60.4 µM | [13] > 100 µM | [14] > 100 µM | [15] > 100 µM | [16] > 100 µM | [19] > 100 µM | [18] > 100 µM

CN(C)NC(=S)NC12CC3CC(CC(C3)C1)C2
inactive: [1] > 100 µM | [2] > 100 µM | [4] > 100 µM | [5] > 100 µM | [6] > 100 µM | [7] > 100 µM | [8] > 100 µM | [11] > 100 µM | [12] > 100 µM | [13] > 100 µM | [14] > 100 µM | [15] > 100 µM | [16] > 100 µM | [19] > 100 µM | [18] > 100 µM

COc1cccc(C=O)c1[O-].COc1cccc(C=O)c1[O-].[Zn+2]
inactive: [1] 97.7 µM | [2] 35.2 µM | [4] 23.3 µM | [5] > 100 µM | [6] 56.1 µM | [7] 46.2 µM | [8] 33.9 µM | [11] 28.9 µM | [12] 57.5 µM | [13] > 100 µM | [14] 43.8 µM | [15] 49 µM | [16] > 100 µM | [19] 32.8 µM | [18] 79.3 µM

CNC(=O)OCC1=C(COC(=O)NC)C(C)N(c2ccc(OC)cc2)C1 (centres undefined)
inactive: [1] 64.9 µM | [2] > 100 µM | [3] > 100 µM | [4] 88.9 µM | [5] 11.5 µM | [6] > 100 µM | [7] 15.3 µM | [8] 36.7 µM | [9] > 100 µM | [10] > 100 µM | [11] 47.2 µM | [12] 54.6 µM | [13] > 100 µM | [14] 80.4 µM | [15] 57 µM | [16] 1.18 µM | [19] 43 µM | [17] > 100 µM | [18] 68.9 µM

Clc1ccccc1CN1COc2c(cc(Cl)c3cccnc23)C1
inactive: [1] 19.2 µM | [2] 1.38 µM | [3] 2.3 µM | [4] 1.85 µM | [5] 3.44 µM | [6] 5.01 µM | [7] 1.52 µM | [8] 3.43 µM | [9] 6.19 µM | [10] 4.62 µM | [12] 3.97 µM | [13] 3.03 µM | [14] 2.85 µM | [15] 4.39 µM | [16] 1.3 µM | [19] 6.59 µM | [17] 7.19 µM | [18] 3.38 µM

O=S1(=O)c2ccccc2NC(c2ccc3ccccc3c2)CC1c1ccccc1F (centres undefined)
inactive: [1] > 100 µM | [2] > 100 µM | [4] > 100 µM | [5] > 100 µM | [6] > 100 µM | [7] > 100 µM | [8] > 100 µM | [11] > 100 µM | [12] > 100 µM | [13] > 100 µM | [14] > 100 µM | [15] > 100 µM | [16] > 100 µM | [19] > 100 µM | [18] > 100 µM

COc1ccccc1C1c2cc3c(cc2OC(O)(CO)C1C(=O)O)OCO3.COc1ccccc1C1c2cc3c(cc2OC2(O)COC(=O)C12)OCO3 (centres undefined)
inactive: [1] > 100 µM | [2] > 100 µM | [4] > 100 µM | [5] > 100 µM | [6] > 100 µM | [7] > 100 µM | [8] > 100 µM | [11] 92.7 µM | [12] > 100 µM | [13] > 100 µM | [14] > 100 µM | [15] > 100 µM | [16] > 100 µM | [19] > 100 µM | [18] > 100 µM

O=C1NC(O)n2c(=O)[nH]c(=O)n21 (centres undefined)
inactive: [1] > 100 µM | [2] > 100 µM | [4] > 100 µM | [5] > 100 µM | [6] > 100 µM | [7] > 100 µM | [8] > 100 µM | [11] > 100 µM | [12] > 100 µM | [13] > 100 µM | [14] > 100 µM | [15] > 100 µM | [16] > 100 µM | [19] > 100 µM | [18] > 100 µM

CC1=C(C(=O)N(C)c2ccc(Cl)c(C(=O)OC(C)C)c2)SCCO1
inactive: [1] 46.7 µM | [2] 29.6 µM | [3] > 100 µM | [4] 60.1 µM | [5] 84.7 µM | [6] > 100 µM | [7] 53.1 µM | [8] 43.3 µM | [9] 48.6 µM | [10] > 100 µM | [11] > 100 µM | [12] 42.4 µM | [13] 55 µM | [14] 70.6 µM | [15] > 100 µM | [16] 44.6 µM | [19] > 100 µM | [17] > 100 µM | [18] 44.2 µM

O=C(NN1C(=O)C=CC1=O)c1ccccc1Nc1ccccc1C(=O)NN1C(=O)C=CC1=O
inactive: [1] > 100 µM | [2] > 100 µM | [3] > 100 µM | [4] > 100 µM | [5] > 100 µM | [6] > 100 µM | [20] > 100 µM | [7] > 100 µM | [8] > 100 µM | [9] > 100 µM | [11] > 100 µM | [12] > 100 µM | [13] > 100 µM | [14] > 100 µM | [15] > 100 µM | [16] > 100 µM | [19] > 100 µM | [17] > 100 µM | [18] > 100 µM

CC1CCC2C(C)(C)CC3(C)CCC1C23O (centres undefined)
inactive: [1] 16.3 µM | [2] 14.6 µM | [3] 16.2 µM | [4] 12.7 µM | [5] 17.7 µM | [6] 16 µM | [20] 12.7 µM | [7] 14.9 µM | [8] 16.2 µM | [9] 15.6 µM | [10] 16.7 µM | [11] 4.02 µM | [12] 22.1 µM | [13] 15.5 µM | [14] 17.2 µM | [15] 15.6 µM | [16] 15.3 µM | [19] 16.3 µM | [18] 16.1 µM

CC(N)Cc1ccc(Cl)c(Cl)c1 (centres undefined)
inactive: [1] 24.3 µM | [2] 16.6 µM | [4] > 52.2 µM | [5] 22.6 µM | [6] 22 µM | [7] 22.8 µM | [8] 22.9 µM | [11] 28.2 µM | [12] 67.8 µM | [13] 10.6 µM | [14] > 66.2 µM | [15] 41.5 µM | [16] 33.6 µM | [19] 69.3 µM | [18] > 95.1 µM

O=C1CCc2nc3ncccc3cc2C1
inactive: [2] > 100 µM | [3] > 100 µM | [4] > 100 µM | [5] > 100 µM | [6] 54.8 µM | [20] 63.5 µM | [8] > 100 µM | [9] 44 µM | [11] 30.5 µM | [12] > 100 µM | [15] > 100 µM | [16] > 100 µM | [19] 47.2 µM | [18] > 100 µM

C=CN1C(=O)OC[C@@H]1c1ccccc1
inactive: [1] > 100 µM | [2] > 100 µM | [4] > 100 µM | [5] > 100 µM | [6] 19.1 µM | [7] > 100 µM | [8] > 100 µM | [11] > 100 µM | [12] > 100 µM | [13] > 100 µM | [14] > 100 µM | [15] > 100 µM | [16] > 100 µM | [19] > 100 µM | [18] > 100 µM

— ChEMBL document CHEMBL1201862, “PubChem BioAssay data set” (2004)
